The test system of test [1] is rats with unilateral 6-hydroxydopamine lesions of the nigrostriatal dopamine pathway. The test is classed as in vivo, rat (male Sprague-Dawley). The settings on record: 20 mg/kg, s.c., per one hour interval. As to the method: Selective lesions of the brain dopamine pathway using the neurotoxin 6-hydroxydopamine (6-OHDA) in rats can be used as an experimental approach to Parkinson's disease. Unilateral lesions of the nigrostriatal dopamine pathway induce a postural asymmetry which becomes manifested as rotation when the animals are activated by dopamine releasers or dopamine agonists. When amphetamine and other stimulant drugs that induce pre-synaptic release of dopamine from intact nerve terminals are administered, the rats rotate in a direction ipsilateral to the lesion. In contrast, when the rats are injected with post-synaptic dopamine receptor agonists, such as apomorphine, they turn in a contralateral direction, due to the development of supersensitive dopamine receptors in the lesioned side. Thus, the 6-OHDA model can be used to determine if a suspected dopaminergic agent is active, and to differentiate whether such action is pre- or post-synaptic.
The effects of invention compounds on rotational behavior in 6-hydroxydopamine denervated rats were evaluated using the procedure of Ungerstedt and Arbutknott, Brain Res. 24:485-493 (1970). Male Sprague-Dawley rats (Zivic Miller) weighing 170-200 gm were used in the 6-OHDA procedure. The ascending nigrostriatal dopamine pathway was lesioned by unilateral stereotaxic injection of 6-OHDA (8.0 μg) into one substantia nigra. All injections of 6-OHDA were preceded by desmethylimipramine (25 mg/kg i.p.) and pargyline (75 mg/kg i.p.) approximately 30 minutes prior to undergoing stereotaxic surgery for 6-OHDA infusion into the substantia nigra. After one week of recovery from surgery, the effectiveness of the lesions was verified by noting the response of the animals to apomorphine (0.2 mg/kg, s.c.). Only rats with a minimum rate of 80 contralateral turns per 30 minutes (a sign of more than 80-90% dopamine depletion after a 6-OHDA lesion) were used. Two weeks later, the selected rats were tested with invention and reference compounds using an automated rotometer system to record the number and direction of rotations. In order to distinguish spontaneous (non-specific)rotations from induced rotations (specific to the effect of the drug), each rat was used as its own control, employing the following procedure:
The rat was placed in the rotometer system for acclimatation for 15 minutes, the vehicle administered subcutaneously, the rat's rotations recorded for one hour, then test compound was administered s.c. and rotations again recorded for one hour. The number of ipsilateral rotations induced by vehicle was then compared to the number of ipsilateral rotations induced by test compound. Statistical analysis of the data was carried out using Student's t-test (paired).

Test [2] has as its target muscarinic acetylcholine receptors. Briefly: ^3 H-QNB (quinuclidinyl benzilate) binding/displacement, rat cerebral membranes. The settings on record: ^3 H-QNB 60 pM, rat cerebral membranes.
Test [3] deals with ^3 H-Dopamine release, rat olfactory tubercles. Briefly: Ligand-stimulated ^3 H-dopamine release from rat olfactory tubercles. The test is classed as cell-based. The settings on record: in vitro slices, 300 μM. The procedure: Measurement of ^3 H-dopamine release from rat striatal slices was performed according to the method of Sacaan et al. (J. Neurochem. 59:245 (1992)). Male Sprague-Dawley rats (250-300 g) were decapitated and the striata or olfactory tubercles dissected quickly on a cold glass surface. The tissue was chopped to a thickness of 300 μm with a McIlwain tissue chopper. After chopping again at right angles the tissue was dispersed and incubated for 10 min. at 37° C. in oxygenated Kreb's buffer. ^3 H-Dopamine (40 Ci/mmol, NEN- Dupont, Boston, Mass.) was added (50 nM) and the tissue was incubated for 30 min. in Kreb's buffer containing 10 μM pargyline and 0.5 mM ascorbic acid. Aliquots of the minced tissue were then transferred to chambers of a Brandel Superfusion system in which the tissue was supported on Whatman GF/B filter discs. The tissue was then superfused with buffer at a constant flow rate of 0.3 ml/min by means of a Brandel peristaltic pump. The perfusate was collected in plastic scintillation vials in 3-min fractions, and the radioactivity was estimated by scintillation spectrophotometry. The superfusate for the first 120 min was discarded. After two baseline fractions had been collected, the superfusion buffer was switched to fresh buffer with or without compound of interest. At the end of the experiment the filter and the tissue were removed, and the radiolabeled neurotransmitter content was estimated after extraction into scintillation fluid. The fractional efflux of radiolabeled neurotransmitter was estimated as the amount of radioactivity in the perfusate fraction relative to the total amount in the tissue.
Results of studies of the effects of an invention compound (as compared to the effect of nicotine) on the release of neurotransmitters from rat brain slices are presented in Table II. Results presented in Part A of the Table are expressed as the percent fractional release and results presented in Part B of the Table are expressed as a percentage, relative to nicotine response.

The values that follow come from US5677459A, “Methods for the preparation of modulators of acetylcholine receptors” (Sibia Neurosciences, Inc., priority 1995, dated 1997).

As for `C#Cc1cncc(C2CCCN2C)c1.O=C(O)/C=C/C(=O)O` (racemic) [R^5 = ethynyl (racemic), 5-Ethynyl-3-(1-methyl-2-pyrrolidinyl)pyridine fumarate], in test [1], the “Percent change from control (ipsilateral rotations)” value is recorded as “+406%”. The same molecule showed an IC50 in test [2] of 10.1 µM. Also, the “percent fractional release, ^3 H-Dopamine, Olfactory Tubercles” value in test [3] worked out at 6.68%.
Turning to `CN1CCCC1c1cncc(-c2ccc(O)c(Cl)c2)c1.O=C(O)/C=C/C(=O)O` (stereo not drawn) [R^5 = 3-chloro-4-hydroxyphenyl, 5-(4-hydroxy-3-chlorophenyl)-3-(1-methyl-2-pyrrolidinyl)pyridine fumarate], in test [1], the “Percent change from control (ipsilateral rotations)” value is -40%. The molecule further came in with an IC50 in test [2] above 10 µM. For the same molecule, the “percent fractional release, ^3 H-Dopamine, Olfactory Tubercles” value in test [3] is on record as 11.4%.
On the same counts, the results for `CN1CCCC1c1cncc(-c2cccc(Cl)c2)c1.O=C(O)/C=C/C(=O)O` (stereo not drawn) [R^5 = 3-chlorophenyl, 5-(3-Chlorophenyl)-3-(1-methyl-2-pyrrolidinyl) pyridine fumarate] are “+62%”, 3.7 µM and 3.25%.
On the same counts, the results for `COc1ccc(-c2cncc(C3CCCN3C)c2)cc1F.O=C(O)/C=C/C(=O)O` (stereo not drawn) [R^5 = 3-fluoro-4-methoxyphenyl, 5-(3-Fluoro-4-methoxyphenyl)-3-(1-methyl-2-pyrrolidinyl)pyridine fumarate] are -3%, 30.5 µM and 2.3%.
